# Assay results taken from patent publication US6645915B1, “Substituted 1,3,5- triazines” (Nihon Bayer Agrochem K. K., priority 1998, dated 2003).
# How the values were obtained:
# [1] = logP by reversed-phase HPLC (EEC Directive 79/831 Annex V.A8); type: physicochemical; settings: acetonitrile gradient; for logP: HPLC, reversed-phase C 18, 43° C., acidic range a): 0.1% aqueous phosphoric acid; for chromatographic logP: reversed-phase C18 HPLC column; HPLC, reversed-phase C 18, 43° C., acidic range a): 0.1% aqueous phosphoric acid
# Procedure: The logP values given in Table 1 were determined in accordance with EEC Directive 79/831 Annex V.A8 by HPLC (High Performance Liquid Chromatography) using a reversed-phase column (C 18). Temperature: 43° C.
# (a) Mobile phase for the determination in the acidic range: 0.1% aqueous phosphoric acid, acetonitrile; linear gradient from 10% acetonitrile to 90% acetonitrile—the corresponding data in Table 1 are labelled^a).
# Calibration was carried out using unbranched alkan-2-ones (having from 3 to 16 carbon atoms) with known logP values (the logP values were determined using the retention times, by linear interpolation between two successive alkanones).
# [2] = test system: Xanthium; assay: Post-emergence test B-1 / greenhouse; type: in vivo; settings: 500 g of ai./ha, rated after three weeks, 0% = no effect, 100% = total destruction
# Procedure: (§1) To produce a suitable preparation of active compound, 1 part by weight of active compound is mixed with the stated amount of solvent, the stated amount of emulsifier is added and the concentrate is diluted with water to the desired concentration.
# (§2) Test plants of a height of 5-15 cm are sprayed with the preparation of active compound such that the particular amounts of active compound desired are applied per unit area. The concentration of the spray liquor is chosen so that the particular amounts of active compound desired are applied in 1000 l of water/ha.
# (§3) After three weeks, the degree of damage to the plants is rated in % damage in comparison to the development of the untreated control.
# (§4) 0%=no effect (like untreated control)
# [3] = test system: Setaria; assay: Post-emergence test B-1 / greenhouse; type: in vivo; settings: 500 g of ai./ha, rated after three weeks, 0% = no effect, 100% = total destruction
# Procedure: as §1, §2, §3, §4
# [4] = test system: Sinapis; assay: Post-emergence test B-1 / greenhouse; type: in vivo; settings: 500 g of ai./ha, rated after three weeks, 0% = no effect, 100% = total destruction
# Procedure: as §1, §2, §3, §4
# [5] = test system: Amaranthus; assay: Post-emergence test B-1 / greenhouse; type: in vivo; settings: 500 g of ai./ha, rated after three weeks, 0% = no effect, 100% = total destruction
# Procedure: as §1, §2, §3, §4
# [6] = test system: weeds; assay: Post-emergence test B-1; type: in vivo; settings: post-emergence test B-1, in words
# Procedure: as §1, §2, §3, §4
# [7] = test system: Maize; assay: Post-emergence test B-1 / greenhouse; type: in vivo; settings: 500 g of ai./ha, rated after three weeks, 0% = no effect, 100% = total destruction
# Procedure: as §1, §2, §3, §4
# [8] = test system: Echinocloa crus galli, Setaria viridis, Amaranthus lividus and Polygonum blumei MEISSN; assay: Post-emergence test B-2; type: in vivo; settings: post-emergence test B-2, plants in 2-leaf stage, rated after three weeks, in words
# Procedure: as §1
# Test plants (Echinocloa crus galli, Setaria viridis, Amaranthus lividus and Polygonum blumei MEISSN) which, on average, are in the 2-leaf stage, are sprayed with the preparation of active compound such that the particular amounts of active compound desired are applied per unit area.
# as §3, §4
# [9] = test system: Echinocloa crus galli, Setaria viridis, Amaranthus lividus and Polygonum blumei MEISSN; assay: Pre-emergence test A-2; type: in vivo; settings: pre-emergence test A-2, rated after four weeks, in words
# Procedure: as §1
# Seeds of the test plants (Echinocloa crus galli, Setaria viridis, Amaranthus lividus and Polygonum blumei MEISSN) are sown in normal soil. The soil is sprayed with the preparation of active compound such that the particular amount of active compound desired is applied per unit area.
# After four weeks, the degree of damage to the plants is rated in % damage in comparison to the development of the untreated controls.
# as §4
# [10] = test system: weeds; assay: Pre-emergence test A-1; type: in vivo; settings: pre-emergence test A-1, in words
# Procedure: as §1
# (§5) Seeds of the test plants are sown in normal soil. After about 24 hours, the soil is sprayed with the preparation of active compound such that the particular amount of active compound desired is applied per unit area. The concentration of the spray liquor is chosen so that the particular amount of active compound desired is applied in 1000 litres of water per hectare.
# as §3, §4
# [11] = test system: Abutilon; assay: Pre-emergence test A-1 / greenhouse; type: in vivo; settings: 500 g of ai./ha, rated after three weeks, 0% = no effect, 100% = total destruction
# Procedure: as §1, §5, §3, §4
# [12] = test system: Maize; assay: Pre-emergence test A-1 / greenhouse; type: in vivo
# Procedure: as §1, §5, §3, §4
# [13] = test system: Amaranthus; assay: Pre-emergence test A-1 / greenhouse; type: in vivo; settings: 500 g of ai./ha, rated after three weeks, 0% = no effect, 100% = total destruction
# Procedure: as §1, §5, §3, §4
# [14] = test system: Abutilon; assay: Post-emergence test B-1 / greenhouse; type: in vivo; settings: 500 g of ai./ha, rated after three weeks, 0% = no effect, 100% = total destruction
# Procedure: as §1, §2, §3, §4
Molecule,logP [1],"% damage, Setaria [3] [%]","% damage, Sinapis [4] [%]","% damage, Amaranthus [5] [%]",action against weeds [6],also measured
CC(Nc1nc(N)nc(C(F)(F)Cl)n1)C1CCCCC1 (racemic) [Example 6],logP = 3.51^a) (racemate),100,100,100,strong action,"% damage, Xanthium [2]: 100%"
CC(Nc1nc(N)nc(C(C)(C)F)n1)C1CCCCC1 (racemic) [Example 7],logP = 1.93^a) (racemate),100,100,100,strong action,"% damage, Xanthium [2]: 100%"
CCC(=O)Nc1nc(NC(C)C2CCCCC2)nc(C(F)(F)Cl)n1 (racemic) [Example 8],logP = 4.23^a) (racemate),100,100,100,strong action,"% damage, Xanthium [2]: 100%"
CCC(=O)Nc1nc(NC(C)C2CCCCC2)nc(C(C)(C)F)n1 (racemic) [Example 9],logP = 3.30^a) (racemate),90,100,95,strong action,"% damage, Maize [7]: 30%"
CCCC(C)Nc1nc(N)nc(C(C)(C)F)n1 (racemic) [Example 28],–,–,–,–,–,action against the abovementioned weeds [8]: strong action
CC(C)CC(C)Nc1nc(N)nc(C(C)(C)F)n1 (racemic) [Example 29],–,–,–,–,–,action against the abovementioned weeds [8]: strong action
CC(C)CCCC(C)Nc1nc(N)nc(C(C)(C)F)n1 (racemic) [Example 31],–,–,–,–,–,action against the abovementioned weeds [8]: strong action
CCC(CC)Nc1nc(N)nc(C(C)F)n1 (racemic) [Example 32],–,–,–,–,–,action against the abovementioned weeds [9]: strong action
"C[C@H](Nc1nc(N)nc([C@@H](C)F)n1)C1CCCCC1 [Example 1, (R,S)-N′-(1-cyclohexyl-ethyl)-6-(1-fluoro-ethyl)-1,3,5-triazine-2,4-diamine]",–,100,100,100,strong action,"action against weeds [10]: strong action; chromatographic logP [1]: 1.83; % damage, Abutilon [11]: 80%; tolerance by crop plants, such as maize ([12]; pre-emergence test A-1, in words): tolerated very well; % damage, Maize ([12]; pre-emergence, 500 g of ai./ha, rated after three weeks, 0% = no effect, 100% = total destruction): 0%; % damage, Amaranthus [13]: 100%; % damage, Xanthium [2]: 100%"
"CCC(=O)Nc1nc(N[C@@H](C)C2CCCCC2)nc([C@@H](C)F)n1 [Example 2, (R,S)-N-[4-(1-cyclohexyl-ethylamino)-6-(1-fluoro-ethyl)-1,3,5-triazin-2-yl]-propionamide]",–,100,100,100,strong action,"chromatographic logP [1]: 3.14; % damage, Xanthium [2]: 100%"
"C[C@H](Nc1nc(NC=O)nc([C@@H](C)F)n1)C1CCCCC1 [Example 3, (R,S)-N-[4-(1-cyclohexyl-ethylamino)-6-(1-fluoro-ethyl)-1,3,5-triazin-2-yl]-formamide]",–,100,100,100,strong action,"chromatographic logP [1]: 3.04; % damage, Abutilon [14]: 90%; melting point: 127 °C"
CCC(=O)Nc1nc(N[C@H](C)C2CCCCC2)nc(C(C)F)n1 (stereo partly shown) [Example 15],logP = 3.11^a) (R enantiomer),–,–,–,–,–
CCC(=O)Nc1nc(N[C@H](C)C2CCCCC2)nc(C(C)(C)F)n1 [Example 16],logP = 3.25^a) (R enantiomer),–,–,–,–,–
CCC(=O)Nc1nc(N[C@H](C)C2CCCCC2)nc(C(Cl)Cl)n1 [Example 17],logP = 2.93^a) (R enantiomer),–,–,–,–,–
CCC(=O)Nc1nc(N[C@@H](C)C2CCCCC2)nc(C(C)F)n1 (stereo partly shown) [Example 21],logP = 3.11^a) (S enantiomer),–,–,–,–,–
CCC(=O)Nc1nc(N[C@@H](C)C2CCCCC2)nc(C(C)(C)F)n1 [Example 22],logP = 3.26^a) (S enantiomer),–,–,–,–,–
CCC(=O)Nc1nc(N[C@@H](C)C2CCCCC2)nc(C(Cl)Cl)n1 [Example 23],logP = 2.93^a) (S enantiomer),–,–,–,–,–
CCC(CC)Nc1nc(N)nc(C(C)(C)F)n1 [Example 33],–,–,–,–,–,action against the abovementioned weeds [9]: strong action
CCC(CC)Nc1nc(NC(C)=O)nc(C(C)(C)F)n1 [Example 34],–,–,–,–,–,action against the abovementioned weeds [9]: strong action
"N-(1-ethylpropyl)-6-(1-fluoro-1-methylethyl)-1,3,5-triazine-2,4-diamine [Example 4]",–,100,100,100,strong action,"% damage, Xanthium [2]: 100%"
"N-acetyl-N′-(1-ethylpropyl)-6-(1-fluoro-1-methylethyl)-1,3,5-triazine-2,4-diamine [Example 5]",–,95,95,100,strong action,"% damage, Abutilon [14]: 90%"
